How the values were obtained:
[1] = test system: SARS-CoV-1, MERS-CoV and SARS-CoV-2 proteins in HEK293T cells; set-up: species or system human
[2] = test system: SARS-CoV-2; type: cell-based
[3] = test system: SARS-CoV-1 (Urbani); type: cell-based
[4] = test system: SARS-CoV-2; type: cell-based; remark: listed apart in the source
[5] = test system: SARS-CoV-1; conditions: cited from earlier work
[6] = test system: canine coronavirus; conditions: previous study (Amici et al. 2006); cited from earlier work

Compound: M-Q9NVH2
- MIST_MERS [1]: 0
- MIST_SARS1 [1]: 0.8943
- MIST_SARS2 [1]: 0.8082
- Saint_MERS [1]: 0
- Saint_SARS1 [1]: 0.97
- Saint_SARS2 [1]: 0.64

Compound: E-Q9ULP9
- MIST_MERS [1]: 0
- MIST_SARS1 [1]: 0.9165
- MIST_SARS2 [1]: 0
- Saint_MERS [1]: 0
- Saint_SARS1 [1]: 0.97
- Saint_SARS2 [1]: 0

Compound: M-Q8TEM1
- MIST_MERS [1]: 0.7258
- MIST_SARS1 [1]: 0.02986
- MIST_SARS2 [1]: 0
- Saint_MERS [1]: 1
- Saint_SARS1 [1]: 0
- Saint_SARS2 [1]: 0

Compound: CCCCc1oc2ccccc2c1C(=O)c1cc(I)c(OCCN(CC)CC)c(I)c1 [amiodarone]
- Antiviral activity against SARS-CoV-2 (in words) [2]: inhibited
- Antiviral activity against SARS-CoV-1 (in words) [3]: inhibited

Compound: E-Q9UBS3
- MIST_MERS [1]: 0.9729
- MIST_SARS1 [1]: 0
- MIST_SARS2 [1]: 0
- Saint_MERS [1]: 0.98
- Saint_SARS1 [1]: 0
- Saint_SARS2 [1]: 0

Compound: COc1ccc2c(c1)c(CC(=O)O)c(C)n2C(=O)c1ccc(Cl)cc1 [indomethacin]
- Inhibition of SARS-CoV-2 in vitro (in words) [4]: did not inhibit SARS-CoV-2 in vitro at reasonable antiviral concentrations
- Inhibition of SARS-CoV-1 in vitro (in words) [5]: similarly high levels of the drug were needed for inhibition
- Efficacy against canine coronavirus in vivo (in words) [6]: showed efficacy

Compound: M-Q96HW7
- MIST_MERS [1]: 0
- MIST_SARS1 [1]: 0.8124
- MIST_SARS2 [1]: 0.9433
- Saint_MERS [1]: 0
- Saint_SARS1 [1]: 0.33
- Saint_SARS2 [1]: 0.65

Compound: E-Q8WVM8
- MIST_MERS [1]: 0.7214
- MIST_SARS1 [1]: 0.3063
- MIST_SARS2 [1]: 0
- Saint_MERS [1]: 0.95
- Saint_SARS1 [1]: 0
- Saint_SARS2 [1]: 0
